Key:
SHP-2 enzyme = target: T1, SHP-2 enzyme (Homo sapiens, UniProt Q06124); experiment: Phosphatase activity assay (Homogeneous Full Length SHP-2 Assay Kit, DiFMUP substrate); type: biochemical; conditions: full length SHP-2 activated with 0.5 μM SHP-2 activating Peptide; 1 hour co-incubation; DiFMUP 50 μM, 30 min
T1 construct: Homogeneous Full Length SHP-2 Assay Kit (BPS Bioscience #79330); purchased BPS Bioscience 79330
T1 sequence (Q06124 1-593): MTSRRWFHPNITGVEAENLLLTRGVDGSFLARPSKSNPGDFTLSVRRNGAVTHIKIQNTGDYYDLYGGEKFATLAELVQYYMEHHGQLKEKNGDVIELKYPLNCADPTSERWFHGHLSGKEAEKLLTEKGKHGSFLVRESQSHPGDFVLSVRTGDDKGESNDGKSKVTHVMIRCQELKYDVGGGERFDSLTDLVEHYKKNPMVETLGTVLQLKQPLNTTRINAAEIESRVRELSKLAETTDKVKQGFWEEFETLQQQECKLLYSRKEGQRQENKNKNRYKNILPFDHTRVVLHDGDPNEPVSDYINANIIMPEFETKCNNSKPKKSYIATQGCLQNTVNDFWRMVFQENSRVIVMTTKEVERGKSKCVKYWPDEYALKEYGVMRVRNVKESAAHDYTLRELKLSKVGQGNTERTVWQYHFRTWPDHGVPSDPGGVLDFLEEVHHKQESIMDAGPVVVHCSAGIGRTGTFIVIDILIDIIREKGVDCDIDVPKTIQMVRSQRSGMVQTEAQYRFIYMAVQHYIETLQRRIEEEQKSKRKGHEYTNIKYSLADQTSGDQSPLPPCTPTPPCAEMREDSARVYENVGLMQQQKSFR
Procedure: IC50 values were assayed using Homogeneous Full Length SHP-2 Assay Kit (BPS Bioscience #79330), which uses 6,8-difluoro-4-methylumbelliferone phosphate (DiFMUP) as the reaction substrate. SHP2 enzyme solution (diluted to 0.04 ng/μL with 1*buffer) was mixed with 0.5 μM SHP-2 activating Peptide in a 1*buffer solution containing 2.5 mM DTT to activate PTP. At the same time, DMSO (0.1% (V/V)) or the compounds (concentration: 0.5 nM to 1 μM) were added, mixed and co-incubated for 1 hour. DiFMUP (50 μM, total reaction system volume of 20 μL) was added, and the reaction was started. After 30 min of incubation, the fluorescence intensity of the reaction system (excitation wavelength: 350 nm, emission wavelength: 460 nm) was measured by Tecan Infinite M1000.

MV-4-11 cell = experiment: Cell proliferation assay (Cell Titer-Glo); type: cell-based; conditions: inhibition of MV-4-11 cell proliferation, Cell Titer-Glo on day 4
Procedure: MV 411 cells (20000 cells/well) were inoculated and cultured in 96 (Corning #3916) well plates, and the medium was 80 μL/well (IMDM with 10% fetal bovine serum (FBS), Gibco #10099-141C). After 24 hours of incubation, 20 μL of the compounds of the present invention configured to different concentrations (DMSO final concentration of 0.1% (V/V)) were added. On day 4, 60 μL of Cell Titer-Glo (Promega #G7558) was added to each well and mixed at 80 rpm, 25° C., 15 min, and the fluorescence values were detected by Victor X5 (PE).

SMILES | IC50 (SHP-2 enzyme) [nM] | IC50 (MV-4-11 cell; Homo sapiens, MV4-11, 96 h) [nM] | IC50 (MV-4-11 cell) [nM]
Cc1nc(C(=O)N2Cc3sc(N)nc3C(F)(F)C2)c(N)nc1N1CCC2(CC1)Cc1ccccc1C2N (centres unmarked) [Compound 65] | 4 | 5 | 
Nc1nc2c(s1)CN(C(=O)c1nc(Cl)c(N3CCC4(CC3)Cc3ccccc3C4N)nc1N)CC2 (centres unmarked) [Compound 83] | 4 | 17 | 
COc1ccc2c(c1)C(N)C1(CCN(c3cnc(C(=O)N4Cc5sc(N)nc5C(C)(C)C4)c(N)n3)CC1)C2 (centres unmarked) [Compound 93] | 8 | 114 | 
N[C@@H]1c2ccccc2CC12CCN(c1cnc(C(=O)N3CCCc4ncccc43)cn1)CC2 [Compound D1, reference compound] | 37 | 860 | 
CC1(C)CN(C(=O)c2ncc(N3CCC4(CC3)Cc3ccc(F)cc3C4N)nc2N)Cc2sc(N)nc21 (centres unmarked) [Compound 94] | 7 | 110 | 
NC1c2ccccc2CC12CCN(c1ncc(C(=O)N3CCc4ncsc4C3)c3nccn13)CC2 (centres unmarked) [Compound 46] | 29 | 166 | 
[2H]C1([2H])CN(C(=O)c2ncc(N3CCC4(CC3)Cc3ccc(OC)cc3C4N)nc2N)Cc2sc(N)nc21 (centres unmarked) [Compound 122] | 8 |  | 25
Nc1nc(N2CCC3(CC2)Cc2cc(F)ccc2C3N)cnc1C(=O)N1CCc2nc(F)ccc21 (centres unmarked) [Compound 81] | 4 | 128 | 
Nc1nc2c(s1)CN(C(=O)c1nc(F)c(N3CCC4(CC3)Cc3ccccc3C4N)nc1N)CC2(F)F (centres unmarked) [Compound 115] | 4 | 4 | 
Nc1nc(N2CCC3(CC2)Cc2ccccc2C3N)cnc1C(=O)N1CCCc2n[nH]cc21 (centres unmarked) [Compound 67] | 7 | 79 | 
Nc1nc(N2CCC3(CC2)Cc2ccccc2C3N)c(Cl)nc1C(=O)N1CCCn2nccc21 (centres unmarked) [Compound 28] | 4 | 44 | 
Cc1nc(C(=O)N2Cc3sc(N)nc3C(C)C2)c(N)nc1N1CCC2(CC1)Cc1ccccc1C2N (centres unmarked) [Compound 105] | 13 | 25 | 
Nc1ccc2c(n1)CCN2C(=O)c1nc(C2CC2)c(N2CCC3(CC2)Cc2ccccc2C3N)nc1N (centres unmarked) [Compound 106] | 15 | 164 | 
Nc1nc(N2CCC3(CC2)Cc2cc(F)ccc2C3N)cnc1C(=O)N1CCc2ncccc21 (centres unmarked) [Compound 21] | 3 | 107 | 
Nc1nc2c(cc1F)N(C(=O)c1ncc(N3CCC4(CC3)Cc3ccccc3C4N)nc1N)CC2 (centres unmarked) [Compound 109] | 3 | 58 | 
Nc1nc(N2CCC3(CC2)Cc2ccc(F)cc2C3N)cnc1C(=O)N1CCc2ncsc2C1 (centres unmarked) [Compound 17] | 4 | 17 | 
Cc1nc(C(=O)N2CCc3nc(N)ccc32)c(N)nc1N1CCC2(CC1)Cc1ccccc1C2N (centres unmarked) [Compound 100] | 7 | 51 | 
CC1(C)CCN(C(=O)c2ncc(N3CCC4(CC3)Cc3ccccc3C4N)nc2N)c2ccnn21 (centres unmarked) [Compound 87] | 9 | 159 | 
CC1(C)CN(C(=O)c2ncc(N3CCC4(CC3)Cc3ccccc3C4N)nc2N)Cc2scnc21 (centres unmarked) [Compound 54] | 8 | 206 | 
Nc1nc(N2CCC3(CC2)Cc2ccccc2C3N)cnc1C(=O)N1CCCn2nccc21 (centres unmarked) [Compound 3] | 13 | 54 | 
Nc1nc2c(s1)CN(C(=O)c1ncc(N3CCC4(CC3)Cc3cc(F)ccc3C4N)nc1N)CC2(F)F (centres unmarked) [Compound 129] | 5 |  | 9
Cc1nc(C(=O)N2Cc3sc(N)nc3C(C)(C)C2)c(N)nc1N1CCC2(CC1)Cc1ccccc1C2N (centres unmarked) [Compound 101] | 18 | 85 | 
Nc1nc(N2CCC3(CC2)Cc2ccc(Cl)cc2C3N)cnc1C(=O)N1CCCn2nccc21 (centres unmarked) [Compound 2] | 4 | 24 | 
Nc1nc2c(s1)CN(C(=O)c1ncc(N3CCC4(CC3)Cc3ccccc3C4N)nc1N)CC2 (centres unmarked) [Compound 75] | 5 | 9 | 
Nc1nc(N2CCC3(CC2)Cc2ccccc2C3N)cnc1C(=O)N1CCc2nc(Cl)ccc21 (centres unmarked) [Compound 52] | 4 | 196 | 
